# Data: patent US20050215772A1, “Furanone derivatives and methods of making same” (priority 2002, published 2005)
# Key:
# [1] = system: AHL mediated quorum sensing; assay type: cell-based
# [2] = system: Staphylococcus aureus; experiment: Growth of Staphylococcus aureus; assay type: cell-based
# Description: The growth of Staphylococcus aureus against furanones was tested in sidearm flasks. One percent of an overnight culture was added to the growth media, Nutrient Broth, containing furanones at the concentrations 1-50 μg/ml. The bacteria were incubated at 37 C and growth was measured at 610 nm.
# [3] = system: AI-2 pathway; experiment: microbe, parasite or virus in culture; assay type: cell-based, V. harveyi; details: Vibrio harveyi, read-out: AI-2 (% of control)
# [4] = assay type: cell-based, V. vulnificus
# [5] = system: V. vulnificus; experiment: Attachment by V. vulnificus; assay type: cell-based
Compound,AHL [1],"S. aureus (% of control) ([2]; growth, 50 ug/ml)",other results
CCCCCCCC1=CC(=O)N(c2ccccc2)C1(O)CBr (centres unmarked),+ + +,,
C/C=C1\NC(=O)C=C1C,+ + +,No effect 50 μg/ml,
CCCCC1=C(Br)/C(=C/Nc2ccccc2)OC1=O,+ + + +,No effect 50 μg/ml,activity at 20 µg/mL [3]: 61%
O=C1C=C(Br)/C(=C/Nc2ccccc2)O1 [drawing 35],,,reduction in swimming motility [4]: 40-50% reduction in swimming motility in V. cholerae and V. vulnificus; reduction in attachment [5]: 30% reduction in attachment by V. vulnificus
CCCC(Br)C1=CC(=C(Br)Br)N(c2ccccc2)C1=O (centres unmarked) [drawing 24],+ + + +,,"S. aureus (% of control) ([2]; growth for 10 hrs, concentration not given): 0% growth at ug/ml for 10 hrs % of control"
CCCC(Br)C1=CC(=C(Br)Br)N(c2ccccc2)C1=O (centres unmarked) [drawing 37],,,reduction in swimming motility [4]: 40-50% reduction in swimming motility in V. cholerae and V. vulnificus; reduction in attachment [5]: 30% reduction in attachment by V. vulnificus
CCCCC1=CC(=C(Br)Br)N(CCOS(=O)(=O)c2ccc(C)cc2)C1=O,+ +,No effect (50 μg/ml),
CC1=CC(C)(Nc2ccccc2)OC1=O (centres unmarked),+ +,No effect 50 μg/ml,activity at 100 µg/mL [3]: 50%
CC1(O)NC(=O)C=C1c1ccccc1 (centres unmarked),,,"activity at 25 µg/mL ([2]; Staphylococcus aureus, growth, 25 μg/ml, read-out: S. aureus (% of control)): 102%; activity at 100 µg/mL [3]: 39%"
O=C1C=C(Br)/C(=C/Nc2ccccc2)O1 [drawing 26],+ + +,,"activity at 50 µg/mL ([2]; Staphylococcus aureus, growth, 50 ug/ml, read-out: S. aureus (% of control)): 104%; activity at 50 µg/mL [3]: 2%"
CCCCC1=CC(=C(Br)Br)N(CCOC(=O)C(F)(F)F)C1=O,+ + +,No effect (50 μg/ml),
CCCCC1=CC(=C(Br)Br)N(c2ccccc2)C1=O,+ + +,,
C[C@@]1(Nc2ccccc2)OC(=O)C=C1N,+ + +,,activity at 5 µg/mL [3]: 80%; activity at 10 µg/mL [3]: 57%; activity at 50 µg/mL [3]: 26%
